Here are results for one compound from patent publication US12157745B2, “Heterocyclic systems and pharmaceutical compositions thereof” (University of Sharjah, priority 2018, dated 2024).

Assay [1] deals with T1, transketolase (Homo sapiens, UniProt P29401).
T1 construct: HEK293T cells were lysed using M-PER; endogenous in cells; host or cells: HEK293T lysate
Kind of assay: DARTS proteomic assay. The note with it: dose-dependent manner, FIG. 10. Type of assay: binding. The text has this: (§1) The unique properties of compound it prompted an in-depth analysis to explore its potential novel targets.
As TKT reaction plays a pivotal role in pentose phosphate pathway, inhibition of TKT will suppress the pentose phosphate pathway and interrupt the synthesis of coenzymes, ATP, CoA, NAD(P)+, FAD, RNA, and DNA in cancer cells. The over-expressed TKT is reported in many cancer cells, tissues, and patients, wherein it regulates proliferation and viability. A strategy of silencing TKT has shown significant effect in reducing tumor burden in gastric cancer cells. Recent studies have shown that targeting TKT has clinical relevance in cancer therapy, as it can counteract the effect of oxidative stress, a critical factor in cancer development.
A DARTS assay was used to assess the binding of compound 1t. HEK293T cells were lysed using M-PER (Thermo Scientific, Inc.) supplemented with protease and phosphatase inhibitors (Lysis buffer). 4.7 mg/mL of protein and TNC buffer (10 mM Tris, 140 mMNaCl, 5 mM CaCl2)) was added, compound it was diluted in DMSO to 3 different concentrations (0.01 μM, 0.1 μM, 1 μM) and incubated for one hour at room temperature. Trypsin (Promega) was added and incubated for 3 hours at 37° C. Thereafter, M-PER lysis buffer was added and the samples were concentrated with Microcon 10K centrifugal filters. […]

Assay [2] concerns the target T2, glutathione reductase (Homo sapiens, UniProt P00390).
T2 construct: HEK293T cells were lysed using M-PER; endogenous in cells; host or cells: HEK293T lysate
Kind of assay: DARTS proteomic assay. Type of assay: binding. Particulars: dose-dependent manner, FIG. 12. The method, then:
as §1
(§2) A DARTS assay was used to assess the binding of compound 1t. HEK293T cells were lysed using M-PER (Thermo Scientific, Inc.) supplemented with protease and phosphatase inhibitors (Lysis buffer). 4.7 mg/mL of protein and TNC buffer (10 mM Tris, 140 mMNaCl, 5 mM CaCl2)) was added, compound it was diluted in DMSO to 3 different concentrations (0.01 μM, 0.1 μM, 1 μM) and incubated for one hour at room temperature. Trypsin (Promega) was added and incubated for 3 hours at 37° C. Thereafter, M-PER lysis buffer was added and the samples were concentrated with Microcon 10K centrifugal filters. The proteins were identified by gel electrophoresis liquid chromatography mass spectroscopy (GelLCMS).

Assay [3] has as its system C-Myc oncogenic protein. Kind of assay: Western blot, C-Myc expression. The format is cell-based. Particulars: all the tested cell lines. The method, then:
Over-expression of this oncogene could result in tumor cell proliferation and migration and therefore its inhibition may halt tumor growth. Other pro-apoptotic (Bid, Bax, caspase-3 & -9) and anti-apoptotic (Bcl-xL) proteins were also modulated by compound it as evident from western blot analysis and as confirmed by annexin V study (FIG. 7).
(§3) The MCF-7, SKBR3 and HCT116 total cell lysate were prepared after 24 hours of treatment with compound it at IC50 and DIC50 doses by using 1× laemmli buffer. Total protein concentration was then estimated for each sample and 15-30 μg of protein lysate were loaded equally on 12% SDS-PAGE gel in order to detect various proteins expression levels. In short, the membrane was incubated with different primary antibodies (as mentioned in above section) (1:1000) overnight after blocking with 5% non-fat milk solution for 1 hour. The membrane was then re-probed with respective mouse/rabbit secondary antibodies (1:2000) for 1 h, and later developed by enhanced chemiluminescence (ECL) method by using a Chemidoc MP (BioRad, Germany).
On the technique in general: A western blot detects proteins with antibodies after separation by electrophoresis.

Assay [4] has as its system SKBr3 cells. The assay can be described thus: Apoptosis study (western blot, caspase-3 activation). The format is cell-based. Particulars: multi-drug resistant breast cancer cells SKBr3. The protocol: Apoptosis studies: The molecular effect of compound it was evaluated by investigating its apoptotic (FIG. 5) and cell cycle arresting potentials (FIGS. 6A and 6B). Compound it arrests the cells at G0/G1 phase in MCF-7 cells (>15%) with respect to control cells after 16, 24, 48, and 72 hours of treatment.
as §3
The apoptotic level was measured using a kit method as per supplier's protocol. […] 2×10^6 cells were counted and re-suspended in 1 mL of binding buffer (1×). […] 400 μL of IX binding buffer was finally added to the cells and analyzed immediately by using by a flow cytometer (BD, Accuri C6).

In assay [5] the test system is ATR. The assay can be described thus: DNA damage study, ATR phosphorylation (western blot). The format is cell-based. The note with it: also its downstream target p53. The method, then: (§4) However, recruitment of phosphatidylinositol-3-kinase (PI3K) family members to the site of DNA damage is the first step of DNA damage response mechanisms and the phosphorylation of ataxia telangiectasia-mutated (ATM) or ATM-Rad3-related (ATR) kinases often follows. […] Overall, compound it was able to induce DNA damage in an ATR-Chk2 dependent pathway in aggressive breast cancer phenotypes.
as §3

For assay [6], the system named is H2AX. The assay can be described thus: DNA damage study, H2AX phosphorylation (western blot). The format is cell-based. Particulars: SKBr3 cells; IC50 and Double IC50 treatments. The text has this: DNA damage studies: One of the main properties of any efficient chemotherapeutic drug is to induce DNA damage in tumor cells either directly or indirectly by generating harmful DNA crosslinks, which can lead to apoptosis and impact the cell by disrupting gene function and/or impairing transcription, DNA replication, and cell proliferation. To gain additional knowledge of compound it's anticancer properties, its mechanism of action to induce DNA damage was studied in breast and colon cancer cells (FIG. 8). One of the critical post-translational modifications of chromatin is phosphorylation of multiple proteins involved in DNA damage pathway and one of the earliest events during DNA double strand break is the phosphorylation of Ser139 on the specialized histone called H2AX, which is then referred to as γ-H2AX.
The MCF-7, SKBR3 and HCT116 total cell lysate were prepared after 24 hours of treatment with compound it at IC50 and DIC50 doses by using 1× laemmli buffer. Total protein concentration was then estimated for each sample and 15-30 μg of protein lysate were loaded equally on 12% SDS-PAGE gel in order to detect various proteins expression levels. In short, the membrane was incubated with different primary antibodies (as mentioned in above section) (1:1000) overnight after blocking with 5% non-fat milk solution for 1 hour. […]

Assay [7] relates to p21. The assay can be described thus: Western blot, p21 expression. The format is cell-based. The note with it: HCT116 colon cancer cells. The protocol: as §3
Assay [8] concerns the target T3, transferrin receptor proteins (Homo sapiens, UniProt P02786).
T3 construct: HEK293T cells were lysed using M-PER; endogenous in cells; host or cells: HEK293T lysate
The assay can be described thus: DARTS proteomic assay. The format is binding.
Excerpt: as §1
(§5) Similarly, deregulated inositol metabolism has been observed in a number of diseases, including cancer, where inositol modulates different critical pathways in disease progression. Moreover, it is expressed consistently in bipolar disorders and Alzheimer's diseases. […] Likewise, the role of glutathione reductase is well known in cancer progression and chemoresistance. The equilibrium between the glutathione disulphide ratio is critical not only in cancer progression but also in increased oxidative stress which can lead to other disorders.
as §2

In assay [9] the target is T4, inositol-3-phosphate synthase (Homo sapiens, UniProt Q9NPH2).
T4 construct: HEK293T cells were lysed using M-PER; endogenous in cells; host or cells: HEK293T lysate
Kind of assay: DARTS proteomic assay. The format is binding.
Excerpt: as §1, §5, §2

In assay [10] the test system is p-Chk2. The assay can be described thus: DNA damage study, p-Chk2 expression (western blot). The format is cell-based. The protocol: as §4, §3

T2 sequence (P00390 44-522): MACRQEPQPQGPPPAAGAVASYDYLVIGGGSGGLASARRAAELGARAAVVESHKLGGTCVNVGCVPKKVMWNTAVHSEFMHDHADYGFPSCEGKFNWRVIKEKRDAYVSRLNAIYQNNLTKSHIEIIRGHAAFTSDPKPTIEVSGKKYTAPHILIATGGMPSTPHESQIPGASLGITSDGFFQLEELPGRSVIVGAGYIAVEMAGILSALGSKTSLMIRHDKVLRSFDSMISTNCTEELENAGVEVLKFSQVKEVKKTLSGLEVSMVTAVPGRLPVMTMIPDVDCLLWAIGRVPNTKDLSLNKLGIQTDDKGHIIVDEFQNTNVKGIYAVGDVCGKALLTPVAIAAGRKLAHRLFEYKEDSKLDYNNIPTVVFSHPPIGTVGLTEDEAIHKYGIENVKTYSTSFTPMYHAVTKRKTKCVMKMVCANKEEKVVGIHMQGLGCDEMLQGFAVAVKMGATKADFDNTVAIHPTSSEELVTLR
T3 sequence (P02786 whole entry): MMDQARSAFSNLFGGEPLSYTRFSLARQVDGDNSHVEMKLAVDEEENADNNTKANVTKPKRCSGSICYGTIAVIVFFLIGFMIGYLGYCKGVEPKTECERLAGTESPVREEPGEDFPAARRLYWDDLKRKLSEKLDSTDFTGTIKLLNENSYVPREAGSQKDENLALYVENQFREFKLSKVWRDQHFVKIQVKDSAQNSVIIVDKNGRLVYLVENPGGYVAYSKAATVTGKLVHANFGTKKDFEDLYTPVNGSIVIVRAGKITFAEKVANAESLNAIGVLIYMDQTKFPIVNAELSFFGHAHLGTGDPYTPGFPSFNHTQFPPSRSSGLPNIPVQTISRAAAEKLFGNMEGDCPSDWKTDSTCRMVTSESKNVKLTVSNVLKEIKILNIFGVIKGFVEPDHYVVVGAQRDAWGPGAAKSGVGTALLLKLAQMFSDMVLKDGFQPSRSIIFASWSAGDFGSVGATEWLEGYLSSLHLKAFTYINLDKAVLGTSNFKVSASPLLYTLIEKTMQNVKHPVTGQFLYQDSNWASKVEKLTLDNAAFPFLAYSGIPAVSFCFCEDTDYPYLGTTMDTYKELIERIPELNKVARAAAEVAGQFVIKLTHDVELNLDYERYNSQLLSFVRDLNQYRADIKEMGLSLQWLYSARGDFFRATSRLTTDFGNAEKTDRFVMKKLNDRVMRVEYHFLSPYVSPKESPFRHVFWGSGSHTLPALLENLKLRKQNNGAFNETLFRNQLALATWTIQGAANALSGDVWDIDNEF
T1 sequence (P29401 whole entry): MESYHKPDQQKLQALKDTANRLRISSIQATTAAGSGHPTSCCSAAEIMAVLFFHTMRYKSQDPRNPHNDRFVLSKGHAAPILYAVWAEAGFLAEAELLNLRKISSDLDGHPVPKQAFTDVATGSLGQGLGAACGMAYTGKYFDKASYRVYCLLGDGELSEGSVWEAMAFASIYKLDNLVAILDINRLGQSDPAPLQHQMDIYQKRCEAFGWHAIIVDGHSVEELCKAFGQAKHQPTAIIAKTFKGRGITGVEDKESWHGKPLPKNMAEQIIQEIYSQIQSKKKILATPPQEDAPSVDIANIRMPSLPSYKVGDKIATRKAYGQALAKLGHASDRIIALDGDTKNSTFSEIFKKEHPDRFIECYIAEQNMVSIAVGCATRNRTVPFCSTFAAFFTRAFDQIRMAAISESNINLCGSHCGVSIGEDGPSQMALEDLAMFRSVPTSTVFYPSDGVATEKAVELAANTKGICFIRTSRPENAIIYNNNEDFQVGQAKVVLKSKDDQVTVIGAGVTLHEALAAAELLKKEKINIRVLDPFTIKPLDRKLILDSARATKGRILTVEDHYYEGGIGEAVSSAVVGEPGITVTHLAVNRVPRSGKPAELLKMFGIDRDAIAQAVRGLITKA
T4 sequence (Q9NPH2 whole entry): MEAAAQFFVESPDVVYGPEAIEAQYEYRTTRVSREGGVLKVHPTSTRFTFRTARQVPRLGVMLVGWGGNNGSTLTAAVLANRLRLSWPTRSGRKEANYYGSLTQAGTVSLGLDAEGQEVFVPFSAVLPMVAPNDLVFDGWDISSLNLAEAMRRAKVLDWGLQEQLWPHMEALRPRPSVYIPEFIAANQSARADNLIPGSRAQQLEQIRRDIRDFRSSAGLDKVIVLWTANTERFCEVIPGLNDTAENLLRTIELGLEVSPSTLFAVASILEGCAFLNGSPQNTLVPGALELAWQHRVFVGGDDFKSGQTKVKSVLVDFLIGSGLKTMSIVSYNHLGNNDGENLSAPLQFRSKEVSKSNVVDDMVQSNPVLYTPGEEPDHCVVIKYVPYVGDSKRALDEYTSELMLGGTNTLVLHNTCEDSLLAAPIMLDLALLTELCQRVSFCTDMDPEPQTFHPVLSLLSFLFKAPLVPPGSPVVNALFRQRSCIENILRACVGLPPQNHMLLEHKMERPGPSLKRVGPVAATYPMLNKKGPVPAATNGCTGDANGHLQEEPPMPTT

For `CC1(C)[C@H]2COc3ccc4ccccc4c3[C@H]2N=C2SC(c3ccccc3)=C(c3ccccc3)N21` [Compound 1t], the Affinity on transketolase entry in assay [1] is on record as “strong affinity”. Besides, the “Modulation of glutathione reductase function” value in assay [2] was “modulated the functions”. The C-Myc oncogenic protein entry in assay [3] was “inhibited”. In addition, the Apoptotic induction entry in assay [4] was “mitochondrial-mediated apoptotic induction with caspase-3 activation”. Moreover, the ATR phosphorylation entry in assay [5] is reported as “phosphorylates ATR”. The H2AX phosphorylation result in assay [6] is on record as “induced H2AX phosphorylation”. Moreover, the “Expression of p21” value in [7] is on record as “overexpressed”. The “Affinity to transferrin receptors” value in [8] is recorded as “higher affinity”. Further, the “Affinity to bind inositol-3-phosphate synthase” value in assay [9] is on record as “dose-dependent affinity”. Besides, the “Checkpoint kinase p-Chk2 expression” value in assay [10] is “elevated levels”.
